The values that follow come from patent publication US20240254119A1 (THIRD HARMONIC BIO, INC., priority 2022, published 2024).

Where only a bound is given, the exact number is not on record here.

A word on the solubility: it is how much of the substance goes into solution per volume. By IC50 is commonly meant the concentration that gives 50% inhibition.

In one series the test system is CYP3A4. The series is described as follows: Hepatocyte CYP induction assay, CYP3A4 gene expression. Conditions: human hepatocytes. Format: in vitro ADME. As to the method: Exemplary compounds were tested for ability to induce CYP3A4 and/or CYP1A2 in hepatocytes. Procedures and results are described below.
Cryopreserved human hepatocytes were purchased from BioIVT (Baltimore, MD, USA), and they were stored in liquid nitrogen before using. The detailed information of hepatocytes is as follows:
Fresh dosing solutions of test compounds, and Rifampicin were prepared in the incubation medium on the day of dosing.
Cryopreserved hepatocytes were thawed and counted to determine yield, viability was measured. Hepatocytes at the concentrations of 0.7 million/mL were transferred to collagen-coated 96-well plates for attachment (0.1 mL viable cells/well). After allowing 4 to 5 hours for attachment of cells, the plating medium was replaced with Incubation Medium containing 2% (v/v) Matrigel™ (sandwich medium) and the hepatocytes were incubated until use.
All incubations were conducted at 37° C., 5% CO2, and saturated humidity.
The sandwich medium was removed and the hepatocytes were treated with incubation solutions containing test articles in vehicle (0.1% DMSO), or positive control for 24 hours after the cultures were established. The incubation solution was aspirated and replaced with incubation solution containing the same concentrations of test articles, vehicle, or positive controls for an additional 24 hours. The total treatment period was 48 hours. Triplicate were used for each concentration of test compound and positive control.
After treatment period of 48 hours, the incubation solution was aspirated. Hepatocytes were washed once with pre-warmed HBSS and incubated with 140 μL of RLT (lysis buffer from Rneasy 96 Kit) supplemented with 1% β-mercaptoethanol. Plates were then stored at ≤−60° C. freezer until RNA analysis.
Before RNA extraction, the frozen plate was thawed and cell lysates were transferred to 96-well plates. RNA isolation was performed using QIAcube HT System. RNA concentration was measured with NanoDrop ND-2000 spectrophotometer. The purity of RNA preparation was calculated by the ratio of the OD260 nm/OD280 nm and the acceptable range is between 1.8 and 2.2. Reverse transcription was performed to obtain cDNA. Quantification of the selective genes by real time quantitative Polymerase Chain Reaction (qPCR) was performed with TaqMan universal PCR Master Mix on the BIO-RAD CFX 384 Touch Real Time PCR System. The following setting were used: 50° C. for 2 minutes, 95° C. for 10 minutes, 40 cycles of 95° C. for 15 seconds and 60° C. for 1 minute. 18S rRNA was used as the internal standard.
To account for variation in RNA yields and reverse transcription polymerase chain reaction (RT-PCR), the gene of interest in all samples was normalized to an internal control gene (18S ribosomal RNA) (Cttarget gene−Ct18S=ΔCt).
The relative quantitation or change in mRNA level of selected genes induced by each test compound was expressed in relation to the vehicle control sample (Δctcompound−ΔCtvehicle=ΔΔCt). Fold changes in gene expression were determined by taking 2 to the power of this value (2^−ΔΔt).
% of positive control [(fold change in treated sample)−1]/[(fold change in positive control)−1]×100

A further series can be described thus: Kinetic solubility assay. Conditions: for Solubility (μM): kinetic solubility, 50 mM PB (pH 7.4), shaken 24 hours at RT. Format: physicochemical. An outline of the steps: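 Concentration in the filtrate was determined by UPLC-UV or HPLC-UV with a standard curve. Before that, compound (10 mM DMSO stock) in 50 mM PB at pH 7.4 was agitated 24 h at room temperature, then PTFE-filtered with centrifugation.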

The next series deals with T1, CSF-1R (Homo sapiens, UniProt P07333).
T1 construct: purchased Invitrogen PV3249 (lot 662393N)
T1 sequence (P07333 20-972): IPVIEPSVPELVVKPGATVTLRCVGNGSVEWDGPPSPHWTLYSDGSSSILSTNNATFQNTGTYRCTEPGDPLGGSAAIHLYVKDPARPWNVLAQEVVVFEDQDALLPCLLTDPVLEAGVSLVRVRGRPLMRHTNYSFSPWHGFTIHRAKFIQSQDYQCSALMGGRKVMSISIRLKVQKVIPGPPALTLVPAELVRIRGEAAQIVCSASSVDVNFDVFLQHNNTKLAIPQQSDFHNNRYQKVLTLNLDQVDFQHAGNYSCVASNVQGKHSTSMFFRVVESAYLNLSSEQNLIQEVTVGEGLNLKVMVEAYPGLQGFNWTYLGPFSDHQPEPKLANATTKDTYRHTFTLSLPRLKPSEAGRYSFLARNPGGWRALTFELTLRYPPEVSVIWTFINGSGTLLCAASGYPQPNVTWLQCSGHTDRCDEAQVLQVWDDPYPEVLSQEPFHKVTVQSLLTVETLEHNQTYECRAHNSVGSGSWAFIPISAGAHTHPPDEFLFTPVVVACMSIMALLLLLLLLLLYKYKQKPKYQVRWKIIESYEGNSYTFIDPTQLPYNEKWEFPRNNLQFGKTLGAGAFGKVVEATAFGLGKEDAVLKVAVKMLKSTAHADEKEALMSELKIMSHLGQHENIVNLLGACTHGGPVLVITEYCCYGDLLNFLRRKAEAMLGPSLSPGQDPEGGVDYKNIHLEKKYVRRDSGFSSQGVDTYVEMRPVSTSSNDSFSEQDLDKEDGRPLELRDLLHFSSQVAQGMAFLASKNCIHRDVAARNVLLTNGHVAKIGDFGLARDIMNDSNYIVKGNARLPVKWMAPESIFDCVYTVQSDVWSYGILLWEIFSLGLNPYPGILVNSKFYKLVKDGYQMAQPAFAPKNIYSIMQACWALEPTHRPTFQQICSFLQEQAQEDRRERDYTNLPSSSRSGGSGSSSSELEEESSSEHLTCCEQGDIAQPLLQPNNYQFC
The series is described as follows: HTRF biochemical assay, CSF-1R. The conditions noted are these: Table 4. As to the method: (§1) Exemplary compounds were tested for ability to inhibit the phosphorylation of a peptide substrate by the tyrosine kinase wt KIT, PDGFRα, or CSF-1R. Assay procedures and results are described below.
(§2) Enzyme, substrate, and cofactors (ATP and Mn^2+) are combined in a well of a microtiter plate and incubated for 3 hours at 25° C. At the end of the incubation, the reaction is quenched by the addition of an EDTA-containing buffer.
(§3) The substrate used in the CSF-1R and PDGFRα assay is FAM-[…]-CONH2 (FAM is carboxyfluorescein). Peptide should be >95% purity. The substrate for the KIT assay is FAM-[…]-NH2.
(§4) • 1. To a well of a 384-wellplate add 5 μL of 2× enzyme buffer (or control). • 2. Add 100 nL of 100× compound. Enzyme and compound may be pre-incubated at this time if desired. • 3. Add 5 μL of 2× substrate buffer. • 4. Incubate plate at 25° C. for 3 hours. • 5. Add 10 uL of anti-phosphotyrosine antibody buffer. • 6. Read plate in BioTek Synergy Reader. Reaction Conditions for wtKIT Assay

Series [1] concerns KIT phosphorylation in M-07e cells. The series can be described thus: Cell-based KIT phosphorylation in M-07e cells by pKIT ELISA. Also on record: species or system human. The conditions noted are these: SCF stimulation. An outline of the steps:
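Serum-starved M-07e cells (1 × 10^6/mL, overnight) were treated with compounds (8-point 3-fold series from 1 uM) for 2 h at 37 °C, then stimulated with 100 ng/mL SCF for 5 min. Lysate phospho-KIT was captured on anti-phospho-CD117 plates, detected with anti-pY-HRP, and read at 450 nm against a pc-KIT standard curve.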
For orientation: An ELISA detects its analyte on a solid surface through an enzyme-linked reagent.

In the next series the target is T2, wtKIT (Homo sapiens, UniProt P10721).
T2 construct: 1888289AM in the reaction mixtures
T2 sequence (P10721 26-976): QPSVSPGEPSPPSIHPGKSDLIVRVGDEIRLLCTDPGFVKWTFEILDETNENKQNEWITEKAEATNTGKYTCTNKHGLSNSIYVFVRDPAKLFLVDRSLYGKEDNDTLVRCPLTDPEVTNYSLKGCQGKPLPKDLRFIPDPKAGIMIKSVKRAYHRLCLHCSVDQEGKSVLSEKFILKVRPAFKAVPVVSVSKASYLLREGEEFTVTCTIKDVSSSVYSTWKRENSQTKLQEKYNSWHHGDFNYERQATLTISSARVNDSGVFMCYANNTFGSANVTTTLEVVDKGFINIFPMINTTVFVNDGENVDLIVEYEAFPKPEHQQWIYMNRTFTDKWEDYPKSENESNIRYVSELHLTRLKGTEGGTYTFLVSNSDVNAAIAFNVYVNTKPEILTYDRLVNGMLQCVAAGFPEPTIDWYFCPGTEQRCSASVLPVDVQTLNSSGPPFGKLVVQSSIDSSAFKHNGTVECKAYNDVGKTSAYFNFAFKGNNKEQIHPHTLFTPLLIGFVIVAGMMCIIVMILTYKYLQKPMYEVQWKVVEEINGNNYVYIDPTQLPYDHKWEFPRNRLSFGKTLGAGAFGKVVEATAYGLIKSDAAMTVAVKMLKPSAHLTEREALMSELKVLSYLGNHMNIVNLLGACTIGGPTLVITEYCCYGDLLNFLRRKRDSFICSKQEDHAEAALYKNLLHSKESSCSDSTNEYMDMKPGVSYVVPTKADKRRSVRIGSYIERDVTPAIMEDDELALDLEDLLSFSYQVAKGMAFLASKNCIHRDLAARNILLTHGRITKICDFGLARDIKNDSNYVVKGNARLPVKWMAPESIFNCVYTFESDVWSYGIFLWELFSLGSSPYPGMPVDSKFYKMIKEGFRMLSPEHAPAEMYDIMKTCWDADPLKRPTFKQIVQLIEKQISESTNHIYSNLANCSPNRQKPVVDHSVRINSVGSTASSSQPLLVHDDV
The series can be described thus: HTRF biochemical assay, wtKIT (phosphorylation of a peptide substrate). Conditions: Table 4. An outline of the steps:
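HTRF read-out of FAM-peptide (1 µM) phosphorylation after anti-phosphotyrosine antibody addition and EDTA quench. Reaction: 5.0 nM wtKIT, 400 µM ATP, 10 mM Mn2+, HEPES pH 7.5, 1% DMSO, 3 h, 25 °C; optional enzyme-compound preincubation; enzyme level set for 10-20% conversion.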
(TR-FRET usually uses a lanthanide donor and a delayed reading to cut background.)

The next series concerns the target T3, PDGFRα (Homo sapiens, UniProt P16234).
T3 construct: purchased Millipore 14-467 (lot 26321_ACTI)
The series can be described thus: HTRF biochemical assay, PDGFRα. Conditions: Table 4, read-out: PDFGRα Biochemical IC50 avg. On the procedure: as §1, §2, §3, §4

T3 sequence (P16234 24-1089): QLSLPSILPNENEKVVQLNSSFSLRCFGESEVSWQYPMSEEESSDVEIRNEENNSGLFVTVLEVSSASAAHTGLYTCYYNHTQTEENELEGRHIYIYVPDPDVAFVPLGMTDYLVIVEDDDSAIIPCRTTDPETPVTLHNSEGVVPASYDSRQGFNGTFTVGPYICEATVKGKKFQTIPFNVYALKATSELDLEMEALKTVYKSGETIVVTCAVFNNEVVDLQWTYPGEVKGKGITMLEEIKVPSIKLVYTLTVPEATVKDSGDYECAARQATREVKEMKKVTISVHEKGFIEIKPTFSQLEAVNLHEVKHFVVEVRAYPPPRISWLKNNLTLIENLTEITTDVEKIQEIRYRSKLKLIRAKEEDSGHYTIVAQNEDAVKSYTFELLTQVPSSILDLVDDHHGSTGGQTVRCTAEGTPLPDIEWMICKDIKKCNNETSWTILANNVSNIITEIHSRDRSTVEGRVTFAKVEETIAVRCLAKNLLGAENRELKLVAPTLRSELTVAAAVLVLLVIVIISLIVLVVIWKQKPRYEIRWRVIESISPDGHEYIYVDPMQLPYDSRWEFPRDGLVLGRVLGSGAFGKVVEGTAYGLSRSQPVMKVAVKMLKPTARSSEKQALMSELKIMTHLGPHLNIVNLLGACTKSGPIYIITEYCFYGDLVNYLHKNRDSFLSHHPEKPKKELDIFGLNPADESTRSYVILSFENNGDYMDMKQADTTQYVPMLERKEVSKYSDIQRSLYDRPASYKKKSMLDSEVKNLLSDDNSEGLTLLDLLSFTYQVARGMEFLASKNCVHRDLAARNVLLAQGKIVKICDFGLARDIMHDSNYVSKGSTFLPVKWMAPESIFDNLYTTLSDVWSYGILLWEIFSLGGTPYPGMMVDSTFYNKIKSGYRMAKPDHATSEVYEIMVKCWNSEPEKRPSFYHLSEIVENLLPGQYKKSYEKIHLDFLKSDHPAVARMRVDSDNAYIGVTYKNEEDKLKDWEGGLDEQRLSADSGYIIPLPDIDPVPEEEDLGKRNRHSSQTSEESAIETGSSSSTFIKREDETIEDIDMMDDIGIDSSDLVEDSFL

On to `CCCS(=O)(=O)N1CC(c2nc(-c3ccc(C)c(NC(=O)c4cnc5ccccn45)c3)no2)C1` [Compound C, reference compound], for which the “CYP 3A4 induction mRNA: Mean fold at 10 μM” value with CYP3A4 (donor four) was “+++ (induction fold of greater than 3-fold to less than or equal to 10-fold)”.

For the compound `COC(=O)N1CC(c2nc(-c3ccc(C)c(NC(=O)c4cnn5ccccc45)c3)no2)C1` [Compound B, reference compound], in the series on CYP3A4 (donor four), the “CYP 3A4 induction mRNA: Mean fold at 10 μM” value is listed as “++ (induction fold of greater than 2-fold to less than or equal to 3-fold)”.

For the compound `COc1ccn2c(C(=O)Nc3cc(-c4noc(C5COC5)n4)ccc3C)cnc2c1` [Compound I-51], the “Solubility (μM)” value in “Kinetic solubility assay” is listed as “**** (a solubility less than or equal to 2 μM)”. For the same compound, in the series with CYP3A4 (donor four), the “CYP 3A4 induction mRNA: Mean fold at 10 μM” value is reported as “++ (induction fold of greater than 2-fold to less than or equal to 3-fold)”.

With `Cc1ccc(-c2noc([C@H]3C[C@@H]3F)n2)cc1NC(=O)c1cnc2cc(CC(F)(F)F)ccn12` [Compound I-45], the “Solubility (μM)” value in “Kinetic solubility assay” was “**** (a solubility less than or equal to 2 μM)”. Besides, in the series on CYP3A4 (donor four), the “CYP 3A4 induction mRNA: Mean fold at 10 μM” value is reported as “++ (induction fold of greater than 2-fold to less than or equal to 3-fold)”.

Turning to `Cc1ccc(-c2noc(C3CC(F)(F)C3)n2)cc1NC(=O)c1cnc2ccccn12` [Compound A, reference compound], in “Kinetic solubility assay” (phosphate buffer, pH 7.4, aqueous buffer, kinetic from dmso stock), the solubility at 24 h was at most 2 µM. Moreover, the “CYP 3A4 induction mRNA: Mean fold at 10 μM” value in the series with CYP3A4 (donor two) was “+++ (induction fold of greater than 3-fold to less than or equal to 10-fold)”.

For `Cc1ccc(-c2noc(CC(O)C(F)F)n2)cc1NC(=O)c1cnn2ccccc12` (single isomer, unassigned) [Compound I-39], the “Solubility (μM)” value in “Kinetic solubility assay” is “**** (a solubility less than or equal to 2 μM)”. For the same compound, in the series with CYP3A4 (donor four), the “CYP 3A4 induction mRNA: Mean fold at 10 μM” value is “++ (induction fold of greater than 2-fold to less than or equal to 3-fold)”.

As for `CCOc1ccc2ncc(C(=O)Nc3cc(-c4noc([C@H]5C[C@@H]5F)n4)ccc3C)n2c1` [Compound I-92], the IC50 at CSF-1R is at most 50 nM; in series [1], at most 50 nM; on wtKIT, at most 50 nM; on PDGFRα, 50 to 500 nM. Further, the “Solubility (μM)” value in the series “Kinetic solubility assay” is given as “**** (a solubility less than or equal to 2 μM)”.

Turning to `Cc1ccc(-c2noc([C@@H]3CC(F)(F)CN3)n2)cc1NC(=O)c1cnc2cc(COCCO)ccn12` [Compound I-111], the IC50 is 50 to 500 nM on CSF-1R, at most 50 nM in series [1], at most 50 nM at wtKIT and 50 to 500 nM on PDGFRα. In addition, the “Solubility (μM)” value in “Kinetic solubility assay” was “* (a solubility greater than 50 μM)”.

Turning to `Cc1ccc(-c2noc(C[C@H](C)O)n2)cc1NC(=O)c1cnn2ccccc12` [Compound I-80], the half-maximal inhibitory concentration (IC50) on CSF-1R was 50 to 500 nM; in series [1], at most 50 nM; at wtKIT it was 50 to 500 nM; on PDGFRα, 5000 to 30000 nM. The “Solubility (μM)” value in the series “Kinetic solubility assay” was “* (a solubility greater than 50 μM)”.
